From US5407824A, “Recombinant coryneform bacterium for producing L-tryptophan” (Kyowa Hakko Kogyo Co., Ltd., priority 1989, dated 1995)

What was measured:
Assay type in all cases: biochemical
[1] = system: 3-deoxy-D-arabino-heptulosonate-7-phosphate synthase (DS) of the transformant carrying pCGDS1; experiment: DS activity, inhibition by phenylalanine and tyrosine, transformant carrying pCGDS1; conditions: Corynebacterium glutamicum ATCC 13032 carrying pCGDS1 (DS gene from K38)
Protocol: DS activities of Corynebacterium glutamicum ATCC 13032 and the transformant carrying pCGDS1 were determined according to the method of P. R. Sprinavasan, D. B. Sprinson, et al. [J. Biol. Chem., 234, 716 (1959)].

[2] = biological target: T1, anthranilate synthase (AS) of ATCC 39019 strain (Corynebacterium glutamicum, UniProt P06557); experiment: AS activity, inhibition by tryptophan, ATCC 39019 strain; conditions: read-out: Tryptophan concentration effective for 50% inhibition of the AS activity
T1 construct: endogenous in cells; host or cells: C. glutamicum, strain printed as ATCC 39019 (ATCC 13032 earlier in the same paragraph)
T1 sequence (P06557 whole entry): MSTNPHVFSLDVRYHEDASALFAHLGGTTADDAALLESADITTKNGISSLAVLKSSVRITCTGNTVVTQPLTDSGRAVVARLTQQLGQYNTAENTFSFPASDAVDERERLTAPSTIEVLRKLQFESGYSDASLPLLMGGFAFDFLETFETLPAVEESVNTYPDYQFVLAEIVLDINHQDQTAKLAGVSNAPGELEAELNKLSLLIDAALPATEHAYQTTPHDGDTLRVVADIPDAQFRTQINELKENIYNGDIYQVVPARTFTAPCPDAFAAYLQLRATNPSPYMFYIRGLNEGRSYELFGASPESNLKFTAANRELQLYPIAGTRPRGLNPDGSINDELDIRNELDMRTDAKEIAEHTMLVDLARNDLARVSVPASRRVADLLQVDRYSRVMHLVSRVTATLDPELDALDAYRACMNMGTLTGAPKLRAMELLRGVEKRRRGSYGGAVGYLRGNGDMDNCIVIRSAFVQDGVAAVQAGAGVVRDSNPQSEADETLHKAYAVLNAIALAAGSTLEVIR
T1 sequence (P06558 whole entry partner): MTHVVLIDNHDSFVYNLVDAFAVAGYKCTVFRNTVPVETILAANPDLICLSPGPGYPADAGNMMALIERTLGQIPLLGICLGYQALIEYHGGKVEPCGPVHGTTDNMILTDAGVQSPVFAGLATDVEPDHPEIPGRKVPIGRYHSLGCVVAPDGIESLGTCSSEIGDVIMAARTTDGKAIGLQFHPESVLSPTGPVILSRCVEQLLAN

[3] = biological target: T2, anthranilate synthase (AS) encoded by pCtrp1 (Corynebacterium glutamicum, UniProt P06557); experiment: AS activity, inhibition by tryptophan, TA108 strain carrying pCtrp1; conditions: read-out: Tryptophan concentration effective for 50% inhibition of the AS activity
T2 construct: cell enzyme activity
T2 sequence (P06558 whole entry): as the sequence (P06558 whole entry partner) above
T2 sequence (P06557 whole entry): as the sequence (P06557 whole entry) above
Protocol: (§1) AS activities of Corynebacterium glutamicum ATCC 13032 and TA108 strains carrying pCtrp1 or pCtrp57 were determined according to the method of H. Hagino, et al. [Agric. Biol. Chem., 39, 323 (1975)], and their PRT activities were determined according to the method of J. Ito and C. Yanofsky [J. Biol. Chem., 97, 734 (1969)]. AS and PRT activities of TA108 strains carrying pCtrp1 or pCtrp57 were more than 10 times as high as those of ATCC 13032 strain.

[4] = biological target: T3, anthranilate synthase (AS) encoded by pCtrp57 (Corynebacterium glutamicum, UniProt P06557); experiment: AS activity, inhibition by tryptophan, TA108 strain carrying pCtrp57; conditions: read-out: Tryptophan concentration effective for 50% inhibition of the AS activity
T3 construct: cell enzyme activity
T3 sequence (P06558 whole entry): as the sequence (P06558 whole entry partner) above
T3 sequence (P06557 whole entry): as the sequence (P06557 whole entry) above
Protocol: (§2) TA108 strain carrying pCtrp1 was cultured in NB medium containing 10 μg/ml kanamycin till the latter stage of the logarithmic growth phase. The grown cells were collected and washed once with 50 mM Tris-maleate buffer solution (pH 6.0) by centrifugation. The washed cells were treated with 400 μg/ml N-methyl-N'-nitro-N-nitrosoguanidine in 50 mM Tris-maleate buffer solution at room temperature for 20 minutes. The treated cells were washed twice with 50 mM Tris-maleate buffer solution by centrifugation and cultured in NB medium containing 10 μg/ml kanamycin at 30° C. for 16 hours. A plasmid DNA was isolated from the grown cells in the same manner as in (1). TA108 strain was transformed with the plasmid thus obtained in the same manner as in (3), and the kanamycin-resistant Colonies grown on RCGP agar medium containing 200 μg/ml kanamycin were scraped up, and washed twice with physiological saline solution by centrifugation. The washed cells were spread on minimal agar medium M1 containing 3 mg/ml 5FT, and cultured at 30° C. for three days. […]
(§3) AS activities of Corynebacterium glutamicum ATCC 13032 and TA108 strains carrying pCtrp1 or pCtrp57 were determined according to the method of H. Hagino, et al. [Agric. Biol. Chem., 39, 323 (1975)], and their PRT activities were determined according to the method of J. Ito and C. […]

[5] = biological target: T4, anthranilate phosphoribosyl transferase (PRT) of ATCC 39019 strain (Corynebacterium glutamicum, UniProt P06559); experiment: PRT activity, inhibition by tryptophan, ATCC 39019 strain; conditions: read-out: Tryptophan concentration effective for 50% inhibition of the PRT activity
T4 construct: endogenous in cells; host or cells: C. glutamicum, strain printed as ATCC 39019 (ATCC 13032 earlier in the same paragraph)
T4 sequence (P06559 1-348): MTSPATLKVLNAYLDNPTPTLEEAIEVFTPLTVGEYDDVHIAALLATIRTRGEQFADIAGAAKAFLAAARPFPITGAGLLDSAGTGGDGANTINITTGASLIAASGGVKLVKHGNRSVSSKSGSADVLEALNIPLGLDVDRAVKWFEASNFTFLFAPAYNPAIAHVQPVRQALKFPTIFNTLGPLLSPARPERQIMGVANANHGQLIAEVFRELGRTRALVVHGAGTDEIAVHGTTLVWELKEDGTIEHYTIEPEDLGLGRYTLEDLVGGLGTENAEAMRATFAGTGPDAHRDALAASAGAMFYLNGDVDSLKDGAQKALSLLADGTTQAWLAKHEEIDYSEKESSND

[6] = biological target: T5, anthranilate phosphoribosyl transferase (PRT) encoded by pCtrp1 (Corynebacterium glutamicum, UniProt P06559); experiment: PRT activity, inhibition by tryptophan, TA108 strain carrying pCtrp1; conditions: read-out: Tryptophan concentration effective for 50% inhibition of the PRT activity
T5 construct: presence of the AS, PRT, TS-α and TS-β genes in the above 11.0 Kb DNA fragment introduced into pCtrp1; expressed in transfected cells; host or cells: C. glutamicum TA108 carrying pCtrp1
T5 sequence (P06559 1-348): T4 sequence (P06559 1-348)
Protocol: as §1

[7] = biological target: T6, anthranilate phosphoribosyl transferase (PRT) encoded by pCtrp57 (Corynebacterium glutamicum, UniProt P06559); experiment: PRT activity, inhibition by tryptophan, TA108 strain carrying pCtrp57; conditions: read-out: Tryptophan concentration effective for 50% inhibition of the PRT activity
T6 construct: cell enzyme activity
Protocol: as §2, §3

Row | Compound | Inhibition of DS in the transformant carrying pCGDS1 [1] | IC50 [2] [µM] | IC50 [3] [µM] | IC50 [4] [µM] | IC50 [5] [µM] | IC50 [6] [µM] | IC50 [7] [µM]
1 | N[C@@H](Cc1ccccc1)C(=O)O [phenylalanine] | free from inhibition | – | – | – | – | – | –
2 | N[C@@H](Cc1c[nH]c2ccccc12)C(=O)O [tryptophan] | – | 2 | 8 | 4000 | 190 | 190 | 4800
3 | N[C@@H](Cc1ccc(O)cc1)C(=O)O [tyrosine] | free from inhibition | – | – | – | – | – | –
